PubChem BioAssay AID256 (DTP/NCI, 2004)
“And” between values parts separate entries of the source, which are not always exact repeats. Equal entries are not always repeated. Inconclusive results and toxic doses are left out.

Test system: CD2F1 mice, L1210 leukemia ip, survival T/C
Assay: NCI In Vivo Anticancer Drug Screen. Data for tumor model L1210 Leukemia (intraperitoneal) in CD2F1 (CDF1) mice
Conditions: higher = longer survival
Outline: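 Vehicle-treated tumor-bearing mice served as controls (C) for compound-treated mice (T). Reported figure is T divided by C.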

In the case of `CN(Cc1cnc2nc(N)nc(N)c2n1)c1ccc(C(=O)N[C@@H](CCC(=O)O)C(=O)O)cc1`, the T/C (endpoint: mean survival time, dose: 0.13 mg/kg/injection, schedule: Q01DX009 (ip), vehicle: saline) was 119 % of control, the T/C (endpoint: mean survival time, dose: 0.19 mg/kg/injection, schedule: Q01DX009 (ip), vehicle: alkali diluted with saline) was 115 % of control and the T/C (endpoint: mean survival time, dose: 0.25 mg/kg/injection, schedule: Q01DX009 (ip), vehicle: sodium bicarbonate) was 115 % of control. The T/C (endpoint: mean survival time, dose: 0.25 mg/kg/injection, schedule: Q03HX008 (ip), vehicle: saline) was 122 % of control, the T/C (endpoint: mean survival time, dose: 0.38 mg/kg/injection, schedule: Q01DX009 (ip), vehicle: alkali diluted with saline) was 120 % of control and the T/C (endpoint: mean survival time, dose: 0.38 mg/kg/injection, schedule: Q01DX009 (ip), vehicle: other) was 154 % of control. For the same compound, the T/C (endpoint: mean survival time, dose: 0.44 mg/kg/injection, schedule: Q01DX009 (ip), vehicle: sodium bicarbonate) was 156 % of control, the T/C (endpoint: mean survival time, dose: 0.47 mg/kg/injection, schedule: Q01DX009 (ip), vehicle: sodium bicarbonate) was 160 % of control and the T/C (endpoint: mean survival time, dose: 0.5 mg/kg/injection, schedule: Q01DX005 (ip), vehicle: sodium bicarbonate) was 115 % of control and 122 % of control. The T/C (endpoint: mean survival time, dose: 0.5 mg/kg/injection, schedule: Q01DX007 (ip), vehicle: other) was 117 % of control, the T/C (endpoint: mean survival time, dose: 0.5 mg/kg/injection, schedule: Q01DX009 (ip), vehicle: saline) was 159 % of control and the T/C (endpoint: mean survival time, dose: 0.75 mg/kg/injection, schedule: Q01DX009 (ip), vehicle: alkali diluted with saline) was 152 % of control and 163 % of control. The T/C (endpoint: mean survival time, dose: 0.75 mg/kg/injection, schedule: Q01DX009 (ip), vehicle: other) was 154 % of control, the T/C (endpoint: mean survival time, dose: 0.78 mg/kg/injection, schedule: Q01DX009 (ip), vehicle: sodium bicarbonate) was 166 % of control and the T/C (endpoint: mean survival time, dose: 1.0 mg/kg/injection, schedule: Q01DX005 (ip), vehicle: sodium bicarbonate) was 113 % of control. The T/C (endpoint: mean survival time, dose: 1.0 mg/kg/injection, schedule: Q01DX009 (ip), vehicle: saline) was 171 % of control and 183 % of control, the T/C (endpoint: mean survival time, dose: 1.3 mg/kg/injection, schedule: Q01DX009 (ip), vehicle: sodium bicarbonate) was 181 % of control and the T/C (endpoint: mean survival time, dose: 1.5 mg/kg/injection, schedule: Q01DX009 (ip), vehicle: alkali diluted with saline) was 177 % of control and 178 % of control. For the same compound, the T/C (endpoint: mean survival time, dose: 1.5 mg/kg/injection, schedule: Q01DX009 (ip), vehicle: other) was 150 % of control and 164 % of control, the T/C (endpoint: mean survival time, dose: 2.0 mg/kg/injection, schedule: Q01DX007 (ip), vehicle: other) was 164 % of control and the T/C (endpoint: mean survival time, dose: 2.0 mg/kg/injection, schedule: Q01DX009 (ip), vehicle: saline) was 161 % of control. For the same compound, the T/C (endpoint: mean survival time, dose: 2.0 mg/kg/injection, schedule: Q02DX005 (ip), vehicle: sodium bicarbonate) was 170 % of control, the T/C (endpoint: mean survival time, dose: 2.0 mg/kg/injection, schedule: Q03DX003 (ip), vehicle: sodium bicarbonate) was 158 % of control and the T/C (endpoint: mean survival time, dose: 2.0 mg/kg/injection, schedule: Q04DX003 (ip), vehicle: sodium bicarbonate) was 160 % of control. For the same compound, the T/C (endpoint: mean survival time, dose: 2.16 mg/kg/injection, schedule: Q01DX009 (ip), vehicle: sodium bicarbonate) was 179 % of control, the T/C (endpoint: mean survival time, dose: 2.3 mg/kg/injection, schedule: Q01DX009 (ip), vehicle: sodium bicarbonate) was 164 % of control and the T/C (endpoint: mean survival time, dose: 2.3 mg/kg/injection, schedule: Q04DX003 (ip), vehicle: saline) was 114 % of control. For the same compound, the T/C (endpoint: mean survival time, dose: 2.5 mg/kg/injection, schedule: Q04DX003 (ip), vehicle: sodium bicarbonate) was 116 % of control, the T/C (endpoint: mean survival time, dose: 4.0 mg/kg/injection, schedule: Q01DX005 (ip), vehicle: sodium bicarbonate) was 160 % of control and the T/C (endpoint: mean survival time, dose: 4.0 mg/kg/injection, schedule: Q04DX003 (ip), vehicle: saline) was 166 % of control. For the same compound, the T/C (endpoint: mean survival time, dose: 4.0 mg/kg/injection, schedule: Q04DX003 (ip), vehicle: sodium bicarbonate) was 169 % of control, the T/C (endpoint: mean survival time, dose: 4.6 mg/kg/injection, schedule: Q04DX003 (ip), vehicle: saline) was 164 % of control and the T/C (endpoint: mean survival time, dose: 5.0 mg/kg/injection, schedule: Q04DX003 (ip), vehicle: alkali diluted with saline) was 156 % of control. For the same compound, the T/C (endpoint: mean survival time, dose: 5.0 mg/kg/injection, schedule: Q04DX003 (ip), vehicle: sodium bicarbonate) was 159 % of control, the T/C (endpoint: mean survival time, dose: 5.4 mg/kg/injection, schedule: Q04DX003 (ip), vehicle: sodium bicarbonate) was 165 % of control and the T/C (endpoint: mean survival time, dose: 8.0 mg/kg/injection, schedule: Q01DX001 (ip), vehicle: saline) was 116 % of control. The T/C (endpoint: mean survival time, dose: 8.0 mg/kg/injection, schedule: Q03DX003 (ip), vehicle: sodium bicarbonate) was 181 % of control, the T/C (endpoint: mean survival time, dose: 9.0 mg/kg/injection, schedule: Q04DX003 (ip), vehicle: sodium bicarbonate) was 176 % of control and the T/C (endpoint: mean survival time, dose: 9.2 mg/kg/injection, schedule: Q04DX003 (ip), vehicle: saline) was 175 % of control. The T/C (endpoint: mean survival time, dose: 10.0 mg/kg/injection, schedule: Q01DX005 (ip), vehicle: sodium bicarbonate) was 164 % of control, the T/C (endpoint: mean survival time, dose: 10.0 mg/kg/injection, schedule: Q04DX003 (ip), vehicle: alkali diluted with saline) was 154 % of control and 164 % of control and the T/C (endpoint: mean survival time, dose: 10.0 mg/kg/injection, schedule: Q04DX004 (ip), vehicle: sodium bicarbonate) was 165 % of control and 183 % of control. For the same compound, the T/C (endpoint: mean survival time, dose: 15.0 mg/kg/injection, schedule: Q04DX004 (ip), vehicle: sodium bicarbonate) was 168 % of control and 170 % of control, the T/C (endpoint: mean survival time, dose: 16.0 mg/kg/injection, schedule: Q04DX003 (ip), vehicle: saline) was 150 % of control and the T/C (endpoint: mean survival time, dose: 25.0 mg/kg/injection, schedule: Q04DX003 (ip), vehicle: sodium bicarbonate) was 174 % of control. For the same compound, the T/C (endpoint: mean survival time, dose: 25.0 mg/kg/injection, schedule: Q04DX004 (ip), vehicle: sodium bicarbonate) was 175 % of control, the T/C (endpoint: mean survival time, dose: 32.0 mg/kg/injection, schedule: Q04DX003 (ip), vehicle: saline) was 174 % of control and the T/C (endpoint: mean survival time, dose: 35.0 mg/kg/injection, schedule: Q04DX003 (ip), vehicle: sodium bicarbonate) was 175 % of control. The T/C (endpoint: mean survival time, dose: 36.8 mg/kg/injection, schedule: Q04DX003 (ip), vehicle: saline) was 159 % of control, the T/C (endpoint: mean survival time, dose: 41.7 mg/kg/injection, schedule: Q04DX003 (ip), vehicle: sodium bicarbonate) was 116 % of control and the T/C (endpoint: mean survival time, dose: 64.0 mg/kg/injection, schedule: Q04DX003 (ip), vehicle: saline) was 120 % of control. For the same compound, the T/C (endpoint: mean survival time, dose: 73.5 mg/kg/injection, schedule: Q04DX003 (ip), vehicle: saline) was 124 % of control, the T/C (endpoint: mean survival time, dose: 128.0 mg/kg/injection, schedule: Q04DX003 (ip), vehicle: saline) was 120 % of control and the T/C (endpoint: median survival time, dose: 0.5 mg/kg/injection, schedule: Q01DX005 (ip), vehicle: sodium bicarbonate) was 113 % of control. For the same compound, the T/C (endpoint: median survival time, dose: 0.52 mg/kg/injection, schedule: Q01DX009 (ip), vehicle: sodium bicarbonate) was 152 % of control, the T/C (endpoint: median survival time, dose: 0.6 mg/kg/injection, schedule: Q06HX024 (ip), vehicle: saline) was 116 % of control and the T/C (endpoint: median survival time, dose: 0.86 mg/kg/injection, schedule: Q01DX009 (ip), vehicle: sodium bicarbonate) was 165 % of control. The T/C (endpoint: median survival time, dose: 1.0 mg/kg/injection, schedule: Q01DX005 (ip), vehicle: sodium bicarbonate) was 124 % of control, the T/C (endpoint: median survival time, dose: 1.25 mg/kg/injection, schedule: Q01DX009 (ip), vehicle: sodium bicarbonate) was 173 % of control and 178 % of control and the T/C (endpoint: median survival time, dose: 1.56 mg/kg/injection, schedule: Q01DX009 (ip), vehicle: sodium bicarbonate) was 171 % of control. For the same compound, the T/C (endpoint: median survival time, dose: 2.5 mg/kg/injection, schedule: Q01DX009 (ip), vehicle: sodium bicarbonate) was 182 % of control, the T/C (endpoint: median survival time, dose: 3.0 mg/kg/injection, schedule: Q01DX005 (ip), vehicle: sodium bicarbonate) was 160 % of control and 175 % of control and the T/C (endpoint: median survival time, dose: 3.0 mg/kg/injection, schedule: Q01DX009 (ip), vehicle: sodium bicarbonate) was 156 % of control. For the same compound, the T/C (endpoint: median survival time, dose: 4.0 mg/kg/injection, schedule: Q01DX005 (ip), vehicle: sodium bicarbonate) was 168 % of control and 181 % of control, the T/C (endpoint: median survival time, dose: 4.5 mg/kg/injection, schedule: Q01DX005 (ip), vehicle: sodium bicarbonate) was 169 % of control (2×) and 183 % of control and the T/C (endpoint: median survival time, dose: 5.4 mg/kg/injection, schedule: Q04DX003 (ip), vehicle: sodium bicarbonate) was 163 % of control and 168 % of control. The T/C (endpoint: median survival time, dose: 6.0 mg/kg/injection, schedule: Q01DX005 (ip), vehicle: sodium bicarbonate) was 171 % of control and 179 % of control, the T/C (endpoint: median survival time, dose: 9.0 mg/kg/injection, schedule: Q04DX003 (ip), vehicle: sodium bicarbonate) was 175 % of control and the T/C (endpoint: median survival time, dose: 12.5 mg/kg/injection, schedule: Q01DX001 (ip), vehicle: sodium bicarbonate) was 116 % of control. For the same compound, the T/C (endpoint: median survival time, dose: 15.0 mg/kg/injection, schedule: Q04DX003 (ip), vehicle: sodium bicarbonate) was 175 % of control, the T/C (endpoint: median survival time, dose: 25.0 mg/kg/injection, schedule: Q04DX003 (ip), vehicle: sodium bicarbonate) was 173 % of control and the T/C (endpoint: median survival time, dose: 72.0 mg/kg/injection, schedule: Q01DX001 (ip), vehicle: sodium bicarbonate) was 113 % of control and 122 % of control. The T/C (endpoint: median survival time, dose: 400.0 mg/kg/injection, schedule: Q01DX001 (ip), vehicle: sodium bicarbonate) was 177 % of control.
